Assay results published in the supplement of paper PMC10307832.

Experiments:
Assay in all cases: relative viability (nuclei count vs DMSO), 5 days (fraction); higher = more cells survive
Ibrutinib + Palbociclib = compound: C=CC(=O)N1CCC[C@@H](n2nc(-c3ccc(Oc4ccccc4)cc3)c3c(N)ncnc32)C1 [Ibrutinib] + CC(=O)c1c(C)c2cnc(Nc3ccc(N4CCNCC4)cn3)nc2n(C2CCCC2)c1=O [Palbociclib] (partner 0.5 µM)
Summary of the method: (§1)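 Each reported value is a median over duplicate plates. It expresses relative viability: treated-well nuclei count divided by vehicle-well nuclei count. Lung cancer cell lines in 1536-well plates were dosed by pin tool a day after seeding, alone with one drug or with a fixed anchor-drug dose plus five library-drug doses (not always all listed) in √10 steps, and nuclei were counted after 5 days.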

Ibrutinib + AZD7762 = compound: C=CC(=O)N1CCC[C@@H](n2nc(-c3ccc(Oc4ccccc4)cc3)c3c(N)ncnc32)C1 [Ibrutinib] + NC(=O)Nc1cc(-c2cccc(F)c2)sc1C(=O)N[C@H]1CCCNC1 [AZD7762] (partner 0.2 µM)
Summary of the method: as §1

BMX-IN-1 + Palbociclib = compound: C=CC(=O)Nc1cc(-n2c(=O)ccc3cnc4ccc(-c5ccc(NS(C)(=O)=O)cc5)cc4c32)ccc1C [BMX-IN-1] + CC(=O)c1c(C)c2cnc(Nc3ccc(N4CCNCC4)cn3)nc2n(C2CCCC2)c1=O [Palbociclib] (partner 0.5 µM)
Summary of the method: as §1

BMX-IN-1 + Tozasertib = compound: C=CC(=O)Nc1cc(-n2c(=O)ccc3cnc4ccc(-c5ccc(NS(C)(=O)=O)cc5)cc4c32)ccc1C [BMX-IN-1] + Cc1cc(Nc2cc(N3CCN(C)CC3)nc(Sc3ccc(NC(=O)C4CC4)cc3)n2)n[nH]1 [Tozasertib] (partner 0.1 µM)
Summary of the method: as §1

Row | Cell Line | relative viability (Ibrutinib + Palbociclib; first compound 0.005 µM) | relative viability (Ibrutinib + Palbociclib; first compound 0.01581 µM) | relative viability (Ibrutinib + Palbociclib; first compound 0.05 µM) | relative viability (Ibrutinib + Palbociclib; first compound 0.1581 µM) | relative viability (Ibrutinib + Palbociclib; first compound 0.5 µM) | relative viability (Ibrutinib + AZD7762; first compound 0.005 µM) | relative viability (Ibrutinib + AZD7762; first compound 0.01581 µM) | relative viability (Ibrutinib + AZD7762; first compound 0.05 µM) | relative viability (Ibrutinib + AZD7762; first compound 0.1581 µM) | relative viability (Ibrutinib + AZD7762; first compound 0.5 µM) | relative viability (BMX-IN-1 + Palbociclib; first compound 0.02 µM) | relative viability (BMX-IN-1 + Palbociclib; first compound 0.2 µM) | relative viability (BMX-IN-1 + Palbociclib; first compound 0.6325 µM) | relative viability (BMX-IN-1 + Palbociclib; first compound 2 µM) | relative viability (BMX-IN-1 + Tozasertib; first compound 0.02 µM) | relative viability (BMX-IN-1 + Tozasertib; first compound 0.2 µM) | relative viability (BMX-IN-1 + Tozasertib; first compound 0.6325 µM) | relative viability (BMX-IN-1 + Tozasertib; first compound 2 µM)
1 | LCLC-97TM1 | 0.222 | 0.226 | 0.284 | 0.241 | 0.161 | 0.276 | 0.326 | 0.317 | 0.268 | 0.219 | 0.247 | 0.3 | 0.227 | 0.217 | 0.203 | 0.274 | 0.289 | 0.203
2 | NCI-H1944 | 0.297 | 0.285 | 0.273 | 0.301 | 0.255 | 0.388 | 0.455 | 0.409 | 0.448 | 0.422 | 0.35 | 0.357 | 0.327 | 0.288 | 0.279 | 0.254 | 0.236 | 0.244
3 | NCI-H1915 | 0.519 | 0.517 | 0.554 | 0.506 | 0.532 | 0.76 | 0.638 | 0.625 | 0.741 | 0.667 | 0.54 | 0.543 | 0.555 | 0.538 | 0.438 | 0.586 | 0.504 | 0.445
4 | BEN | 0.462 | 0.465 | 0.491 | 0.459 | 0.453 | 0.473 | 0.61 | 0.637 | 0.506 | 0.697 | 0.489 | 0.479 | 0.479 | 0.518 | 0.58 | 0.498 | 0.52 | 0.507
5 | H3255 | 0.312 | 0.328 | 0.293 | 0.324 | 0.26 | 0.695 | 0.767 | 0.61 | 0.754 | 0.418 | 0.311 | 0.318 | 0.349 | 0.299 | 0.788 | 0.648 | 0.577 | 0.624
6 | NCI-H1395 | 0.55 | 0.672 | 0.648 | 0.623 | 0.612 | 0.405 | 0.403 | 0.387 | 0.404 | 0.413 | 0.702 | 0.62 | 0.572 | 0.588 | 0.832 | 0.793 | 0.701 | 0.715
7 | NCI-H1437 | 0.336 | 0.307 | 0.307 | 0.235 | 0.374 | 1.12 | 1.12 | 1.08 | 1.08 | 1.16 | 0.326 | 0.294 | 0.354 | 0.328 | 0.497 | 0.43 | 0.38 | 0.414
8 | ChaGo-K-1 | 0.94 | 0.886 | 0.953 | 0.869 | 0.901 | 0.85 | 0.798 | 0.894 | 0.833 | 0.838 | 0.996 | 1.13 | 0.905 | 0.987 | 0.216 | 0.227 | 0.218 | 0.237
9 | NCI-H1755 | 0.473 | 0.442 | 0.467 | 0.455 | 0.495 | 0.45 | 0.455 | 0.454 | 0.409 | 0.453 | 0.394 | 0.439 | 0.509 | 0.422 | 0.493 | 0.578 | 0.577 | 0.519
10 | HOP-62 | 0.542 | 0.442 | 0.42 | 0.459 | 0.516 | 0.53 | 0.662 | 0.651 | 0.867 | 0.626 | 0.53 | 0.543 | 0.48 | 0.471 | 0.431 | 0.413 | 0.388 | 0.373
11 | NCI-H2342 | 0.495 | 0.519 | 0.496 | 0.486 | 0.502 | 0.317 | 0.6 | 0.499 | 0.472 | 0.345 | 0.578 | 0.519 | 0.51 | 0.568 | 0.454 | 0.526 | 0.494 | 0.422
12 | PC-14 | 0.527 | 0.495 | 0.576 | 0.575 | 0.172 | 0.379 | 0.349 | 0.314 | 0.224 | 0.23 | 0.583 | 0.478 | 0.58 | 0.47 | 0.672 | 0.658 | 0.605 | 0.571
13 | EMC-BAC-2 | 0.509 | 0.493 | 0.566 | – | 0.497 | 1.19 | 1.1 | 1.1 | – | 1.2 | 0.543 | 0.537 | 0.528 | 0.516 | 0.286 | 0.287 | 0.289 | 0.274
14 | NCI-H2170 | 0.329 | 0.296 | 0.259 | 0.385 | 0.139 | 0.699 | 0.695 | 0.655 | 0.769 | 0.182 | 0.426 | 0.421 | 0.447 | 0.373 | 0.771 | 0.779 | 0.625 | 0.777
15 | A-427 | 0.549 | 0.533 | 0.491 | – | 0.496 | 0.745 | 0.734 | 0.757 | – | 0.706 | 0.488 | 0.573 | 0.571 | 0.504 | 0.183 | 0.182 | 0.21 | 0.2
16 | ABC-1 | 0.482 | 0.439 | – | – | 0.733 | 0.904 | 0.863 | 0.807 | 0.759 | 0.695 | 0.76 | 0.503 | 0.537 | 0.589 | 0.199 | 0.162 | 0.145 | 0.172
